Assay results reported in patent publication US7183394B1, “Helical nucleopeptides” (priority 2000, dated 2007).

Tests used:
Assay type in all cases: binding
d(A3AGGAGA3) [1] = experiment: Thermal UV denaturation (Tm), antiparallel target d(A3AGGAGA3); conditions: antiparallel N/3′; 5 μM each in TE buffer pH 7, incubated overnight at 4° C.
Method: (§1) The N-caps investigated consisted of a series of arenyl and aliphatic carboxylic acids. […] Thermal UV denaturation (Tm) data for the equilibria between N-cap-CTCCT and d(A3GAGGAA3) (SEQ. ID NO.: 5) (N/5′ or parallel orientation) and N-cap-CTCCT and d(A3AGGAGA3) (SEQ. ID NO.: 4) (N/3′ or antiparallel orientation) are collected in Table 2. Thermal UV denaturation curves were obtained with sample solutions made by combining the N-capped (αPNA and ssDNA components (5 μM each) in TE buffer (10 mM Tris-HCl, 1 mM EDTA, pH 7). These solutions were then incubated overnight at 4° C.

d(A3GAGGAA3) = experiment: Thermal UV denaturation (Tm), parallel target d(A3GAGGAA3); conditions: for Tm (cooling) / Tm (heating): parallel N/5′, 5 μM each in TE buffer pH 7, incubated overnight at 4° C.
Method: as §1

d(TA3G5A3T) = experiment: Thermal denaturation (Tm) of complex with d(TA3G5A3T); conditions: for Tm (cooling) / Tm (heating): Table 3, N-4-(cyclohexyl)butyryl cap
Method: The α-helical secondary structure (˜26%) of these backbone 1 αPNAs in the absence of DNA was confirmed by circular dichroism (CD) studies in H2O. Both the N-terminal linked (b1) and C-terminal-linked (b1′) cysteine dimers formed complexes with d(A10) in H2O (Table 1, entries 1 and 2). […] The homothymine b1αPNAs required a relatively long incubation period (up to 4 days at 4° C. until constant absorbance was reached) due to the slow kinetics of annealing.
(§2) (Cf. Corey, D. R. J. Am. Chem. Soc. 1995, 117, 9373–9374). […] Even the T5(b2) module hybridized with d(A10) (SEQ ID NO.: 2)—albeit weakly as expected for a complex held together by only A•T base pairs (entry 5). […] This implies that equilibration is being achieved during the cooling cycle. This Tm is 20° C. higher than that of C5(b1)•d(TA3G5A3T) in H2O (compare entries 6 and 7) and 35° C. higher than the corresponding DNA•DNA duplex (in TE-buffer+150 mM NaCl). […] (Marky, L. A.; Breslauer, K. J. Biopolymers 1987, 26, 1601–1620). Added salt was expected to disrupt favorable charge—charge interactions between cationic αPNAs and anionic DNA.
(§3) This reduction in melting temperature presumably arises from residual hydration of the mismatched nucleobases and provides additional support for our proposed Watson-Crick binding model.

d(A3GGAGGA3) [2] = experiment: Thermal denaturation (Tm) of complex with d(A3GGAGGA3)
Method: as §2, §3

d(A3AGGAGA3) [3] = experiment: Thermal UV denaturation (Tm), antiparallel target d(A3AGGAGA3); conditions: Table 1; antiparallel (N/3′) orientation
d(A3GGAGGA3) [4] = experiment: CD titration (Job plot) with d(A3GGAGGA3); conditions: 258 nm, 5° C., total concentration 12 μM, water
Method: Spectra were recorded at 5° C. using a JASCO J-600 CD spectro-polarimeter. Samples having a total concentration ([αPNA]+[DNA]) of 12 μM were made up in doubly deionized water and placed in a stoppered optical quartz cell (1 cm pathlength). Dry air was purged through the sample compartment. Each data point represents the average of eight (baseline corrected) points. […] This is in line with the PAGE experiment with T5(b2)-dimer and d(C3T(TC2)2A10C(TC2)3) (SEQ. ID NO.: 6).

[5] = Table 3, N-4-(cyclohexyl)butyryl cap

Substance | Tm (heating) (d(A3AGGAGA3) [1]) [°C] | Tm (cooling) (d(A3GAGGAA3)) [°C] | Tm (heating) (d(A3GAGGAA3)) [°C] | also measured
3-cyclopentylpropionyl-CTCCT [C5H9CH2CH2CO] | 33.8 | 38.2 | 43.7 | –
4-(1-pyrenyl)butyryl-CTCCT [1-pyrenyl(CH2)3CO] | 39.0 | 43.8 | 42.6 | –
4-(2-naphthyl)butyryl-CTCCT [2-naphthyl(CH2)3CO] | 36.3 | 40.0 | 42.7 | –
4-(p-methoxyphenyl)butyryl-CTCCT [p-MeOC6H4(CH2)3CO] | 34.2 | 37.0 | 41.3 | –
4-(p-nitrophenyl)butyryl-CTCCT [p-NO2C6H4(CH2)3CO] | 34.4 | 37.8 | 41.6 | –
4-cyclohexylbutyryl-CCCCC [C6H11(CH2)3CO-CCC CC] | – | – | – | Tm (cooling) (d(TA3G5A3T)): 66 °C; Tm (heating) (d(TA3G5A3T)): 65 °C; Tm (heating) (d(TA3G5A3T); listed as N-4-(cyclohexyl)butyryl-CCCCC): 64.9 °C
4-cyclohexylbutyryl-CCTCC [C6H11(CH2)3CO-CCT CC] | – | – | – | Tm (cooling) (d(A3GGAGGA3) [2]; [5]): 51 °C; Tm (heating) (d(A3GGAGGA3) [2]; [5]): 60 °C; Tm (heating) (d(A3GGAGGA3) [2]; Table 3, N-4-(cyclohexyl)butyryl cap, listed as N-4-(cyclohexyl)butyryl-CCTCC): 60.8 °C; Tm (cooling) (d(TA3G5A3T)): 46 °C; Tm (heating) (d(TA3G5A3T)): 50 °C; lowering of Tm (cooling) by a single base-pair mismatch (d(TA3G5A3T); mismatched complex): 10 °C; lowering of Tm (heating) by a single base-pair mismatch (d(TA3G5A3T); mismatched complex): 15 °C
4-cyclohexylbutyryl-CTCCT [C6H11CH2CH2CH2CO] | 33.4 | 43.7 | 47.9 | Tm increase compared to the parent N-acetylated αPNA (d(A3GAGGAA3); parallel, heating, cooling): 11–12 °C
4-phenylbutyryl-CTCCT [C6H5(CH2)3CO] | 33.6 | 38.5 | 41.8 | –
Ac-Cys^Acm-Lys-(Ser^C-Ala2-Lys)2-Ser^T-(Ala2-Lys-Ser^C)2-Gly-Lys-NH2 [CCTCC(b2)] | – | – | – | Tm (d(A3AGGAGA3) [3]): 32 °C; Tm (d(A3GGAGGA3) [2]; Table 1): 49 °C; Tm (d(TA3G5A3T); TE-buffer): 38 °C; CD intensity minimum (d(A3GGAGGA3) [4]): 50 mol % αPNA; Tm (d(A3GAGGAA3); Table 1, parallel (N/5′) orientation): 37 °C
n-butyryl-CTCCT [CH3CH2CH2CO] | 30.2 | 36.7 | 40.0 | –
n-hexanoyl-CTCCT [CH3CH2CH2CH2CH2CO] | 33.4 | 35.0 | 41.0 | –
